From US12662465B2, “EGFR inhibitors” (Blueprint Medicines Corporation, priority 2021, dated 2026)
Like-named read-outs stand apart in the source and are kept apart here.

What was measured:
[1] = molecular target: intracellular phosphorylation of EGFR (Tyr1068) in PC-9 cells (Ex19Del) (Homo sapiens, UniProt P00533, DEL746-750); experiment: PC-9 pEGFR AlphaLISA assay; assay type: cell-based; details: 4 hours compound incubation, read-out: Ext pEGFR_PC-9 Ex19Del IC50
EGFR (d746-750) = molecular target: T1, EGFR (d746-750) (Homo sapiens, UniProt P00533, DEL746-750); experiment: Biochemical EGFR inhibition assay (Caliper mobility shift), EGFR (d746-750); details: read-out: Enz EGFR_Exon19-del746-750 IC50
T1 construct: purchased SignalChem E10-122JG
T1 sequence (P00533 with tags, fused parts or gaps DEL746-750 limits assumed): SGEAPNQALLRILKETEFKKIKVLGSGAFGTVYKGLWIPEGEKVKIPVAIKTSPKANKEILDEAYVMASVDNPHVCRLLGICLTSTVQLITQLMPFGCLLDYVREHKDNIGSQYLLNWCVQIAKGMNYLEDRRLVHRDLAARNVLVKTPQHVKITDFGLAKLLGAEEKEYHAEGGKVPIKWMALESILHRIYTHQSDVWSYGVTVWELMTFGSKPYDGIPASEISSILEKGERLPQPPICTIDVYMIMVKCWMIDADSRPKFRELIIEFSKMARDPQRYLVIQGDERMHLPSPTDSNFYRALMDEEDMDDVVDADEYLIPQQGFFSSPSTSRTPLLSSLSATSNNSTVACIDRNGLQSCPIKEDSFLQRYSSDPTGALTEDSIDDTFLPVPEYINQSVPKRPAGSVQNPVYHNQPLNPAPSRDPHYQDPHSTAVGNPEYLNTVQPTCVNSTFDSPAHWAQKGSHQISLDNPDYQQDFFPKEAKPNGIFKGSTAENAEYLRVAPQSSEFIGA

EGFR L858R = molecular target: T2, EGFR L858R (Homo sapiens, UniProt P00533, L858R); experiment: Biochemical EGFR inhibition assay (Caliper mobility shift), EGFR L858R; details: read-out: Enz EGFR_L858R IC50
T2 construct: purchased SignalChem E10-122BG
T2 sequence (P00533 25-1210 L858R): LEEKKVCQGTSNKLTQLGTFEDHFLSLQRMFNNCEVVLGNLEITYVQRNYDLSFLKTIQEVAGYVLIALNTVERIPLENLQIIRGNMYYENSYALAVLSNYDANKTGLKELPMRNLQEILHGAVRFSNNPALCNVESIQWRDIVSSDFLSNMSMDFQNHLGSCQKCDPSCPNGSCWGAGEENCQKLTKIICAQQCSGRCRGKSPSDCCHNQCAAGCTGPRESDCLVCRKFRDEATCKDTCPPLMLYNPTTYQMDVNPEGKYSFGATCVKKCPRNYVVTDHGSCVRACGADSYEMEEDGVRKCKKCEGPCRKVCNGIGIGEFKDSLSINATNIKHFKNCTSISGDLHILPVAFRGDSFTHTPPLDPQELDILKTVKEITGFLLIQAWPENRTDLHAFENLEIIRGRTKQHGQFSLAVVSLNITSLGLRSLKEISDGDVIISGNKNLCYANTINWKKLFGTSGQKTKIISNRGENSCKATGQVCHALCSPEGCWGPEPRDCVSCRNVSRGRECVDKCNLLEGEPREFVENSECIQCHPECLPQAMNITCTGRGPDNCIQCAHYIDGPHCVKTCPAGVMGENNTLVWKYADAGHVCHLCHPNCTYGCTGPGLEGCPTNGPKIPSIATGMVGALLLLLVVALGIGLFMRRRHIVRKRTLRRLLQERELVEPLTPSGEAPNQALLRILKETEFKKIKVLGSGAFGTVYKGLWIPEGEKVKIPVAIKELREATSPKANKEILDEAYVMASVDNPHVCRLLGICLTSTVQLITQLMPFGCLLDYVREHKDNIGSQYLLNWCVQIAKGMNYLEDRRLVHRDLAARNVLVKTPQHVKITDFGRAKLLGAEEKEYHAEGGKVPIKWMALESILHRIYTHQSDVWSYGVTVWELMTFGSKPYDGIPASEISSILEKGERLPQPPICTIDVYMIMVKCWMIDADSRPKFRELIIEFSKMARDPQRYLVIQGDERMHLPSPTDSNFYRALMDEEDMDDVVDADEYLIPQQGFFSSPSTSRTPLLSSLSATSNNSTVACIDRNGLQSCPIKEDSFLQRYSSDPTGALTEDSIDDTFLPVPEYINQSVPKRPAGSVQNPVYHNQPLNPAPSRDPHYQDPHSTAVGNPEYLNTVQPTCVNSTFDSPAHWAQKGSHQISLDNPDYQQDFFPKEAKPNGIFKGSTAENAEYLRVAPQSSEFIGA

[2] = 1.0 mM ATP or ATP Km, room temperature (25° C.)

Sequence of intracellular phosphorylation of EGFR (Tyr1068) in PC-9 cells (Ex19Del) (P00533 with tags, fused parts or gaps DEL746-750): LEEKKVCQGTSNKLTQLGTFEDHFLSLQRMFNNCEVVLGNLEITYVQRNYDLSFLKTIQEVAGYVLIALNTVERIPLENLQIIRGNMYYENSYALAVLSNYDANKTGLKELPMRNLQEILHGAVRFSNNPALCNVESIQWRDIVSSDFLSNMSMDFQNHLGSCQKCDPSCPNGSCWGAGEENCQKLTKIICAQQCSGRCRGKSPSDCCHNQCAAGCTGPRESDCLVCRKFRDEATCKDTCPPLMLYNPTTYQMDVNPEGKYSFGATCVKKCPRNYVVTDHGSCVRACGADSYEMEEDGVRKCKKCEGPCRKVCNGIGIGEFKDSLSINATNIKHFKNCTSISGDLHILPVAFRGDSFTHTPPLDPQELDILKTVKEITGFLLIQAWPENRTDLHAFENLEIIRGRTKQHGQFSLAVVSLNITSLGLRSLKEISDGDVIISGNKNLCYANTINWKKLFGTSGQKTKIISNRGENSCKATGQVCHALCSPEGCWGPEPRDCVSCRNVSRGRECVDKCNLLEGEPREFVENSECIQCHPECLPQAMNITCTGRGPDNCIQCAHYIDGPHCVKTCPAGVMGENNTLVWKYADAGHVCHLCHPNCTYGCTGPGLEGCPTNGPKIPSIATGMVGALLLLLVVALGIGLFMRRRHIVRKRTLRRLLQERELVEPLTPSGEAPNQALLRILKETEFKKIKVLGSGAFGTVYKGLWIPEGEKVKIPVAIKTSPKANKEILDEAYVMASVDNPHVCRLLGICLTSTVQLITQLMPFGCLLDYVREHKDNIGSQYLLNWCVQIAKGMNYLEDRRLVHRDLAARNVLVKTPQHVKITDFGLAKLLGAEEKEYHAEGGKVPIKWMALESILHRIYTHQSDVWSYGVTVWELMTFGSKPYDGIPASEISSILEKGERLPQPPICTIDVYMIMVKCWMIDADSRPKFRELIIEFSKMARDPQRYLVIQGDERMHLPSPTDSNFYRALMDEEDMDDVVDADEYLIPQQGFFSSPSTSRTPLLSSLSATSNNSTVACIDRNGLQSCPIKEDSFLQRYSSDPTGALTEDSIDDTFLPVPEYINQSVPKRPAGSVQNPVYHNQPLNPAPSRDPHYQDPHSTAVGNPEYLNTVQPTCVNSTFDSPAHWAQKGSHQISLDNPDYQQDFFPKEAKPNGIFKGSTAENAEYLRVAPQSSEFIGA

CC(CN(C)C)Oc1cc(-c2cnn(C)c2)cc2ncnc(Nc3ccc4ncccc4c3)c12 (racemic) [Example 42, (R)-5-((1-(dimethylamino)propan-2-yl)oxy)-7-(1-methyl-1H-pyrazol-4-yl)-N-(quinolin-6-yl)quinazolin-4-amine and (S)-5-((1-(dimethylamino)propan-2-yl)oxy)-7-(1-methyl-1H-pyrazol-4-yl)-N-(quinolin-6-yl)quinazolin-4-amine]
IC50 [1]: ≤ 10 nM | IC50 (EGFR (d746-750)): < 10 nM | IC50 (EGFR L858R): < 10 nM

CC(CN(C)C)Oc1cc(N2CC3CC(C2)O3)cc2ncnc(Nc3ccc4ncccc4c3)c12 (racemic) [Example 66, 7-(6-oxa-3-azabicyclo[3.1.1]heptan-3-yl)-5-(((R)-1-(dimethylamino)propan-2-yl)oxy)-N-(quinolin-6-yl)quinazolin-4-amine and 7-(6-oxa-3-azabicyclo[3.1.1]heptan-3-yl)-5-(((S)-1-(dimethylamino)propan-2-yl)oxy)-N-(quinolin-6-yl)quinazolin-4-amine]
IC50 [1]: ≤ 10 nM | IC50 (EGFR (d746-750)): < 10 nM | IC50 (EGFR L858R): 10.1 to 50 nM

COC1CCN(c2cc(O[C@H](C)C3COC3)c3c(Nc4ccc5ncccc5c4F)ncnc3c2)C1 (mixture of isomers) [Example 84, N-(5-fluoroquinolin-6-yl)-7-((R)-3-methoxypyrrolidin-1-yl)-5-((R)-1-(oxetan-3-yl)ethoxy)quinazolin-4-amine and N-(5-fluoroquinolin-6-yl)-7-((S)-3-methoxypyrrolidin-1-yl)-5-((R)-1-(oxetan-3-yl)ethoxy)quinazolin-4-amine]
IC50 [1]: ≤ 10 nM | IC50 (EGFR (d746-750)): < 10 nM | IC50 (EGFR L858R): < 10 nM

COC1CCN(c2cc(O[C@H](C)CN(C)C)c3c(Nc4ccc5ncccc5c4F)ncnc3c2)C1 (mixture of isomers) [Example 86, 5—(((R)-1-(dimethylamino)propan-2-yl)oxy)-N-(5-fluoroquinolin-6-yl)-7-((R)-3-methoxypyrrolidin-1-yl)quinazolin-4-amine and 5-(((R)-1-(dimethylamino)propan-2-yl)oxy)-N-(5-fluoroquinolin-6-yl)-7-((S)-3-methoxypyrrolidin-1-yl)quinazolin-4-amine]
IC50 [1]: ≤ 10 nM | IC50 (EGFR (d746-750)): < 10 nM | IC50 (EGFR L858R): < 10 nM

C[C@H](CN(C)C)Oc1cc(N2CCOC(C(F)F)C2)cc2ncnc(Nc3ccc4ncccc4c3F)c12 (mixture of isomers) [Example 98, 7—((S)-2-(difluoromethyl)morpholino)-5-(((R)-1-(dimethylamino)propan-2-yl)oxy)-N-(5-fluoroquinolin-6-yl) and 7-((R)-2-(difluoromethyl)morpholino)-5-(((R)-1-(dimethylamino)propan-2-yl)oxy)-N-(5-fluoroquinolin-6-yl)quinazolin-4-amine]
IC50 [1]: ≤ 10 nM | IC50 (EGFR (d746-750)): < 10 nM | IC50 (EGFR L858R): 10.1 to 50 nM

CC(CO)n1cc(-c2cc(O[C@H](C)C3COC3)c3c(Nc4ccc5ncccc5c4F)ncnc3c2)cn1 (mixture of isomers) [Example 119, (R)-2-(4-(4-((5-fluoroquinolin-6-yl)amino)-5-((R)-1-(oxetan-3-yl)ethoxy)quinazolin-7-yl)-1H-pyrazol-1-yl)propan-1-ol and (S)-2-(4-(4-((5-fluoroquinolin-6-yl)amino)-5-((R)-1-(oxetan-3-yl)ethoxy)quinazolin-7-yl)-1H-pyrazol-1-yl)propan-1-ol]
IC50 [1]: ≤ 10 nM | IC50 (EGFR (d746-750)): < 10 nM | IC50 (EGFR L858R): < 10 nM

C[C@@H](Oc1cc(-c2cnn(C)c2)cc2ncnc(Nc3ccc4ncccc4c3F)c12)C1COC1 (single isomer, unassigned) [Example 1, (R)—N-(5-fluoroquinolin-6-yl)-7-(1-methyl-1H-pyrazol-4-yl)-5-(1-(oxetan-3-yl)ethoxy)quinazolin-4-amine or (S)—N-(5-fluoroquinolin-6-yl)-7-(1-methyl-1H-pyrazol-4-yl)-5-(1-(oxetan-3-yl)ethoxy)quinazolin-4-amine]
IC50 [1]: ≤ 10 nM | IC50 (EGFR (d746-750); [2]): < 10 nM | IC50 (EGFR L858R; [2]): < 10 nM

C[C@H](Oc1cc(-c2cnn(C)c2)cc2ncnc(Nc3ccc4ncccc4c3F)c12)C1COC1 (single isomer, unassigned) [Example 2, (S)—N-(5-fluoroquinolin-6-yl)-7-(1-methyl-1H-pyrazol-4-yl)-5-(1-(oxetan-3-yl)ethoxy)quinazolin-4-amine or (R)—N-(5-fluoroquinolin-6-yl)-7-(1-methyl-1H-pyrazol-4-yl)-5-(1-(oxetan-3-yl)ethoxy)quinazolin-4-amine]
IC50 [1]: ≤ 10 nM | IC50 (EGFR (d746-750); [2]): < 10 nM | IC50 (EGFR L858R; [2]): < 10 nM

C[C@@H](CN(C)C)Oc1cc(-c2cnn(C)c2)cc2ncnc(Nc3ccc4ncccc4c3F)c12 (single isomer, unassigned) [Example 4, (S)-5-((1-(dimethylamino)propan-2-yl)oxy)-N-(5-fluoroquinolin-6-yl)-7-(1-methyl-1H-pyrazol-4-yl)quinazolin-4-amine or (R)-5-((1-(dimethylamino)propan-2-yl)oxy)-N-(5-fluoroquinolin-6-yl)-7-(1-methyl-1H-pyrazol-4-yl)quinazolin-4-amine]
IC50 [1]: > 50.1 nM | IC50 (EGFR (d746-750); [2]): 10.1 to 50 nM | IC50 (EGFR L858R; [2]): 10.1 to 50 nM

C[C@H](CN(C)C)Oc1cc(-c2cnn(C)c2)cc2ncnc(Nc3ccc4ncccc4c3F)c12 (single isomer, unassigned) [Example 5, (R)-5-((1-(dimethylamino)propan-2-yl)oxy)-N-(5-fluoroquinolin-6-yl)-7-(1-methyl-1H-pyrazol-4-yl)quinazolin-4-amine or (S)-5-((1-(dimethylamino)propan-2-yl)oxy)-N-(5-fluoroquinolin-6-yl)-7-(1-methyl-1H-pyrazol-4-yl)quinazolin-4-amine]
IC50 [1]: ≤ 10 nM | IC50 (EGFR (d746-750); [2]): < 10 nM | IC50 (EGFR L858R; [2]): < 10 nM

Cn1cc(-c2cc(O[C@@H]3CC[C@@H]3O)c3c(Nc4ccc5ncccc5c4F)ncnc3c2)cn1 (single isomer, unassigned) [Example 16, (1S,2R)-2-((4-((5-fluoroquinolin-6-yl)amino)-7-(1-methyl-1H-pyrazol-4-yl)quinazolin-5-yl)oxy)cyclobutan-1-ol or (1R,2S)-2-((4-((5-fluoroquinolin-6-yl)amino)-7-(1-methyl-1H-pyrazol-4-yl)quinazolin-5-yl)oxy)cyclobutan-1-ol]
IC50 [1]: ≤ 10 nM | IC50 (EGFR (d746-750); [2]): < 10 nM | IC50 (EGFR L858R; [2]): < 10 nM

CC[C@H](Oc1cc(-c2cnn(C)c2)cc2ncnc(Nc3ccc4ncccc4c3F)c12)C1COC1 (single isomer, unassigned) [Example 23, (S)—N-(5-fluoroquinolin-6-yl)-7-(1-methyl-1H-pyrazol-4-yl)-5-(1-(oxetan-3-yl)propoxy)quinazolin-4-amine or ((R)—N-(5-fluoroquinolin-6-yl)-7-(1-methyl-1H-pyrazol-4-yl)-5-(1-(oxetan-3-yl)propoxy)quinazolin-4-amine]
IC50 [1]: ≤ 10 nM | IC50 (EGFR (d746-750); [2]): < 10 nM | IC50 (EGFR L858R; [2]): < 10 nM

C[C@H](O)[C@H](C)Oc1cc(-c2cnn(C)c2)cc2ncnc(Nc3ccc4ncccc4c3F)c12 (single isomer, unassigned) [Example 30, (2S,3S)-3-((4-((5-fluoroquinolin-6-yl)amino)-7-(1-methyl-1H-pyrazol-4-yl)quinazolin-5-yl)oxy)butan-2-ol or (2R,3R)-3-((4-((5-fluoroquinolin-6-yl)amino)-7-(1-methyl-1H-pyrazol-4-yl)quinazolin-5-yl)oxy)butan-2-ol]
IC50 [1]: ≤ 10 nM | IC50 (EGFR (d746-750); [2]): < 10 nM | IC50 (EGFR L858R; [2]): < 10 nM

CN(C)C[C@H](Oc1cc(-c2cnn(C)c2)cc2ncnc(Nc3ccc4ncccc4c3F)c12)C(F)F (single isomer, unassigned) [Example 37, (S)-5-((3-(dimethylamino)-1,1-difluoropropan-2-yl)oxy)-N-(5-fluoroquinolin-6-yl)-7-(1-methyl-1H-pyrazol-4-yl)quinazolin-4-amine or (R)-5-((3-(dimethylamino)-1,1-difluoropropan-2-yl)oxy)-N-(5-fluoroquinolin-6-yl)-7-(1-methyl-1H-pyrazol-4-yl)quinazolin-4-amine]
IC50 [1]: ≤ 10 nM | IC50 (EGFR (d746-750); [2]): < 10 nM | IC50 (EGFR L858R; [2]): < 10 nM

CN(C)C[C@@H](Oc1cc(-c2cnn(C)c2)cc2ncnc(Nc3ccc4ncccc4c3F)c12)C(F)F (single isomer, unassigned) [Example 38, (R)-5-((3-(dimethylamino)-1,1-difluoropropan-2-yl)oxy)-N-(5-fluoroquinolin-6-yl)-7-(1-methyl-1H-pyrazol-4-yl)quinazolin-4-amine or (S)-5-((3-(dimethylamino)-1,1-difluoropropan-2-yl)oxy)-N-(5-fluoroquinolin-6-yl)-7-(1-methyl-1H-pyrazol-4-yl)quinazolin-4-amine]
IC50 [1]: 10.1 to 50 nM | IC50 (EGFR (d746-750); [2]): < 10 nM | IC50 (EGFR L858R; [2]): 10.1 to 50 nM

C[C@H](CN(C)C)Oc1cc(-c2cnn(C)c2)cc2ncnc(Nc3ccc4ncccc4c3)c12 (single isomer, unassigned) [Example 43, (R)-5-((1-(dimethylamino)propan-2-yl)oxy)-7-(1-methyl-1H-pyrazol-4-yl)-N-(quinolin-6-yl)quinazolin-4-amine or (S)-5-((1-(dimethylamino)propan-2-yl)oxy)-7-(1-methyl-1H-pyrazol-4-yl)-N-(quinolin-6-yl)quinazolin-4-amine]
IC50 [1]: > 50.1 nM | IC50 (EGFR (d746-750); [2]): 10.1 to 50 nM | IC50 (EGFR L858R; [2]): > 50.1 nM

C[C@@H](CN(C)C)Oc1cc(-c2cnn(C)c2)cc2ncnc(Nc3ccc4ncccc4c3)c12 (single isomer, unassigned) [Example 44, (S)-5-((1-(dimethylamino)propan-2-yl)oxy)-7-(1-methyl-1H-pyrazol-4-yl)-N-(quinolin-6-yl)quinazolin-4-amine or (R)-5-((1-(dimethylamino)propan-2-yl)oxy)-7-(1-methyl-1H-pyrazol-4-yl)-N-(quinolin-6-yl)quinazolin-4-amine]
IC50 [1]: ≤ 10 nM | IC50 (EGFR (d746-750); [2]): < 10 nM | IC50 (EGFR L858R; [2]): < 10 nM
